The subject of data set [1] is HBV. Nature of the data set: Anti-HBV activity, HepG2.2.15 stable transfected cell line, HBV DNA from secreted virions by realtime PCR. The settings on record: Hepatitis B virus. The class given is cell-based.
A short description of data set [2]: Cytotoxicity in HepG2 cells, Resazurin viability assay. As to conditions: human, HepG2 cells. A general note: Resazurin is reduced to fluorescent resorufin, in cell work by metabolically active cells.
For data set [3], the system named is HBV. Nature of the data set: Anti-HBV activity, HepG2.117 inducible HBV producing cell line (Tet-off), intracellular HBV DNA by realtime PCR. As to conditions: Hepatitis B virus. It is filed as cell-based.
Where [4] appears, read: 144 h, HepG2.2.15 cells, 6 days of treatment, HBV DNA from secreted virions, read-out: HepG 2.2.15 EC50.
Where [5] appears, read: 72 h, HepG2.117 cells, 3 days of treatment, intracellular HBV DNA, read-out: HepG2 117 EC50.

The term EC50 denotes the midpoint of the concentration-response curve. The term CC50 denotes the concentration giving 50% cytotoxicity. Low values mean harm at low concentration, high ones better tolerance by the cells. With `C[C@@H](NC(=O)C(=O)c1c(Cl)c(C(=O)Nc2ccc(F)c(C#N)c2)n(C)c1C1CC1)C(F)(F)F` [Compound 31, 3-chloro-N-(3-cyano-4-fluoro-phenyl)-5-cyclopropyl-1-methyl-4-[2-oxo-2-[[(1R)-2,2,2-trifluoro-1-methyl-ethyl]amino]acetyl]pyrrole-2-carboxamide], the concentration for a half-maximal effect (EC50) with HBV [1] (setting [4]) turned out to be 0.012 µM; in the data set on HBV [3] (setting [5]) it was 0.019 µM. In data set [2], the CC50 at 4 days is > 25 µM.

With `Cc1cc(NC(=O)c2cc(C(=O)C(=O)NC(C)(C)C(N)=O)cn2C)ccc1F` [Compound 8, 4-{[(2-Amino-1,1-dimethyl-2-oxoethyl)amino](oxo)acetyl}-N-(4-fluoro-3-methylphenyl)-1-methyl-1H-pyrrole-2-carboxamide], the half-maximal effective concentration (EC50) amounted to 0.052 µM with HBV [1] (setting [4]) and 0.038 µM in the data set with HBV [3] (setting [5]). The half-maximal cytotoxic concentration (CC50) at 4 days in data set [2] was > 25 µM.

Take `Cn1cc(C(=O)C(=O)NC2(C)COC2)cc1C(=O)Nc1cc(F)c(F)c(Cl)c1` [Compound 17, N-(3-Chloro-4,5-difluorophenyl)-1-methyl-4-{[(3-methyloxetan-3-yl)-amino](oxo)acetyl}-1H-pyrrole-2-carboxamide]: the EC50 worked out at 0.029 µM with HBV [1] (setting [4]) and 0.57 µM in the data set with HBV [3] (setting [5]). Moreover, the 50% cytotoxic concentration (CC50) at 4 days in data set [2] was > 25 µM.

As to `Cn1cc(C(=O)C(=O)NC2(C)COC2)cc1C(=O)Nc1ccc(F)c(C#N)c1` [Compound 16, N-(3-Cyano-4-fluorophenyl)-1-methyl-4-{[(3-methyloxetan-3-yl)amino]-(oxo)acetyl}-1H-pyrrole-2-carboxamide], the results for the half-maximal effective concentration (EC50) in the data set with HBV [1] (setting [4]) and in the data set on HBV [3] (setting [5]) were 0.048 µM and 0.04 µM, respectively. The CC50 at 4 days in data set [2] is > 25 µM.

Broadly, the melting point is the temperature, or range, at which the solid turns liquid. As for `Cc1cc(NC(=O)c2cc(C(=O)C(=O)N[C@H](C)C(F)(F)F)cn2C)ccc1F` [Compound 5, (R)—N-(4-fluoro-3-methylphenyl)-1-methyl-4-(2-oxo-2-(1,1,1-trifluoropropan-2-ylamino)acetyl)-1H-pyrrole-2-carboxamide], the melting point was found to be 156.9 °C. Moreover, the half-maximal effective concentration (EC50) with HBV [1] (setting [4]) stood at 0.056 µM. Further, the half-maximal cytotoxic concentration (CC50) at 4 days in data set [2] was > 25 µM. In the data set with HBV [3] (setting [5]), the EC50 came to 0.099 µM.

Consider `Cn1cc(C(=O)C(=O)NC2(C)COC2)cc1C(=O)Nc1cccc(C(F)(F)F)c1` [Compound 13, 1-methyl-4-(2-(3-methyloxetan-3-ylamino)-2-oxoacetyl)-N-(3-(trifluoro-methyl)phenyl)-1H-pyrrole-2-carboxamide], for which the EC50 in the data set on HBV [1] (setting [4]) is 0.033 µM; in the data set on HBV [3] (setting [5]), > 1 µM. The 50% cytotoxic concentration (CC50) at 4 days in data set [2] is > 25 µM.

`C[C@@H](NC(=O)C(=O)c1cn(C)c(C(=O)Nc2ccc(F)c(C#N)c2)c1Cl)C(F)(F)F` [Compound 24, 3-chloro-N-(3-cyano-4-fluoro-phenyl)-1-methyl-4-[2-oxo-2-[[(1R)-2,2,2-trifluoro-1-methyl-ethyl]amino]acetyl]pyrrole-2-carboxamide]: the concentration giving a half-maximal response (EC50) with HBV [1] (setting [4]) was 0.02 µM; in the data set on HBV [3] (setting [5]) it was 0.024 µM. Besides, the CC50 at 4 days in data set [2] is > 25 µM.

Regarding `Cc1cc(NC(=O)c2cc(C(=O)C(=O)N[C@H](C)CC#N)cn2C)ccc1F` [Compound 9, 4-[{[(1R)-2-Cyano-1-methylethyl]amino}(oxo)acetyl]-N-(4-fluoro-3-methyl-phenyl)-1-methyl-1H-pyrrole-2-carboxamide], the 50% effective concentration (EC50) in the data set with HBV [1] (setting [4]) came to 0.17 µM; in the data set with HBV [3] (setting [5]) it was 0.2 µM. In data set [2], the cytotoxic concentration (CC50) at 4 days was > 25 µM.

In the case of `Cc1cc(NC(=O)c2cc(C(=O)C(=O)NC(C)C)cn2C)ccc1F` [Compound 2, N-(4-fluoro-3-methylphenyl)-4-(2-(isopropylamino)-2-oxoacetyl)-1-methyl-1H-pyrrole-2-carboxamide], the EC50 amounted to 0.029 µM in the data set with HBV [1] (HepG2.2.15, 144 h, read-out: HepG 2.2.15 EC50 (μM)) and 0.75 µM in the data set on HBV [3] (HepG2.117, 72 h, read-out: HepG2 117 EC50 (μM)). For the same molecule, the CC50 at 4 days in data set [2] was > 25 µM.

For the molecule `Cn1cc(C(=O)C(=O)NC(C)(C)C)c(Cl)c1C(=O)Nc1ccc(F)c(C#N)c1` [Compound 23, 4-[(tert-Butylamino)(oxo)acetyl]-3-chloro-N-(3-cyano-4-fluorophenyl)-1-methyl-1H-pyrrole-2-carboxamide], the figures for the 50% effective concentration (EC50) in the data set with HBV [1] (setting [4]) and in the data set on HBV [3] (setting [5]) were 0.005 µM and 0.008 µM, respectively. For the same molecule, in data set [2], the 50% cytotoxic concentration (CC50) at 4 days was > 25 µM.

The values above are taken from US10450270B2, “Glyoxamide substituted pyrrolamide derivatives and the use thereof as medicaments for the treatment of hepatitis B” (Janssen Sciences Ireland UC, priority 2013, dated 2019).
